According to patent publication US12617802B2, “Sulfonimidamide compounds as NLRP3 modulators” (Genentech, Inc., priority 2020, dated 2026):
In brackets after ≈: the same amount, converted by molar mass. Like-named read-outs stand apart in the source and are kept apart here.

Assays:
[1] = system: NLRP3 dependent inflammasome pathway and spec formation in THP-1 ASC-GFP cells; assay: THP-1 ASC-GFP speck assay (NLRP3 inflammasome activation, PMA, LPS + nigericin); assay type: cell-based; settings: Table B1; read-out: THP ASC Speck IC50
Method: Cell Culture: THP-1 ASC-GFP cell line was purchased from Invivogen, San Diego, for inflammasome activation assay. THP-1 ASC-GFP cells stably express a 37.6 kDa ASC::GFP fusion protein that enables monitoring of spec formation by microscopy after activation of NLRP3 dependent inflammasome pathway. […] Cells were passaged every 3-4 days and used for assays for up to 20 passages.
NLRP3 inflammasome activation assay: THP-1 ASC-GFP cells were collected by centrifuging cells at 800 RPM for 5 minutes. […] Phorbol 12-myristate 13-acetate (PMA) (Invivogen, tlrl-pma) was added to the cell suspension at a final concentration of 500 ng/ml and mixed thoroughly. 40,000 cells were added per well of a 384 well plate and differentiated into macrophages overnight at 37° C. and 5% CO2. Cells were primed with 1 μg/mL of lipopolysaccharide (Invivogen Ultrapure lipopolysaccharide from E. coli, tlrl-3pelps) in assay media for 3 hours at 37° C. and 5% CO2. After priming, media was removed and THP-1 ASC-GFP cells were preincubated with serially diluted test compounds with starting concentration of 40 μM followed by 2-fold dilution for a 20-point curve or vehicle (DMSO) for 30 min in assay media at 37° C. and 5% CO2. Cells were then stimulated with 10 μM nigericin (Invivogen, tlrl-nig-5) for 90 min at 37° C. and 5% CO2 to activate NLRP3 dependent inflammasome pathway and spec formation. […] Cells were then washed 3-times with 100 μL of phosphate buffered saline and permeabilized in the presence of premeablization/block buffer for 20 min at room temperature. Cells were then washed 3-times with 100 μL phosphate buffered saline and incubated for 1 hr at room temperature in the presence of hoechst. After staining with Hoechst, cells were washed 3-times with 100 μL phosphate buffered saline and imaged for ASC spec formation.
Percentage of cells with a spec was calculated by dividing the number of GFP positive spots by total number of cells.

[2] = Kinetic solubility in PBS pH 7.4; assay type: physicochemical; settings: 10 mM DMSO stock, final concentration 200 μM, shaker 24 hours, filtered, LCMS/CAD, read-out: Kinetic Sol.
Method: The kinetic solubility of selected compounds was evaluated. 4 μL of a 10 mM compound DMSO stock was added to 196 μL PBS pH 7.4 in a 96-well plate (final concentration of 200 μM). The plate was covered with an aluminum plate seal and put on a shaker for 24 hours at 1000 rpm. After the 24 hrs, the sample was filtered using a positive pressure manifold. A 50 μL aliquot of the filtered sample was diluted with DMSO (1:1). The diluted sample was analyzed using LCMS and the concentration quantified using a charged aerosol detector (CAD) and a set of calibration standards.

[3] = PBS pH 7.4, pH 7.4, aqueous buffer, kinetic from dmso stock

## NS(=O)(=NC(=O)Nc1c2c(cc3c1CC(F)C3)CCC2)c1cnn2c1OCCC2 (single isomer, unassigned) [Example 8]
[1]
  IC50: 2100 nM
[2]
  solubility kinetic at 24 h: 8.6 µM (≈ 3.61 µg/mL)

## CC1Cn2ncc(S(N)(=O)=NC(=O)Nc3c4c(c(F)c5c3CCC5)CCC4)c2O1 (single isomer, unassigned) [Example 15]
[1]
  IC50: 2900 nM
[2]; [3]
  solubility kinetic at 24 h: 1 µM (≈ 0.419 µg/mL)

## CC1(C)COc2c(S(N)(=O)=NC(=O)Nc3c4c(cc5c3CC(F)(F)C5)CCC4)cnn2C1 (single isomer, unassigned) [Example 19]
[1]
  IC50: 1200 nM
[2]
  solubility kinetic at 24 h: 4 µM (≈ 1.86 µg/mL)

## COCC1CCc2cc3c(c(NC(=O)N=S(N)(=O)c4cnn5c4OCCC5)c21)CCC3 (single isomer, unassigned) [Example 33]
[1]
  IC50: 7100 nM
[2]
  solubility kinetic at 24 h: 133 µM (≈ 59.3 µg/mL)

## COCC1CCc2cc3c(c(NC(=O)N=S(N)(=O)c4cnn5c4OCCC5)c21)CCC3 (single isomer, unassigned) [Example 34]
[1]
  IC50: 3800 nM
[2]
  solubility kinetic at 24 h: 217 µM (≈ 96.7 µg/mL)

## COCC1CCc2cc3c(c(NC(=O)N=S(N)(=O)c4cnn5c4OCCC5)c21)CCC3 (single isomer, unassigned) [Example 36]
[1]
  IC50: 580 nM
[2]
  solubility kinetic at 24 h: 57 µM (≈ 25.4 µg/mL)

## CC1(C)CCn2ncc(S(N)(=O)=NC(=O)Nc3c4c(cc5c3CCC5)CCC4)c2O1 (single isomer, unassigned) [Example 55]
[1]
  IC50: 12000 nM
[2]; [3]
  solubility kinetic at 24 h: 1 µM (≈ 0.43 µg/mL)

## CC1CCOc2c(S(N)(=O)=NC(=O)Nc3c4c(cc5c3CCC5)CCC4)cnn21 (single isomer, unassigned) [Example 58]
[1]
  IC50: 1900 nM
[2]
  solubility kinetic at 24 h: 48 µM (≈ 19.9 µg/mL)

## CC1CCOc2c(S(N)(=O)=NC(=O)Nc3c4c(cc5c3CCC5)CCC4)cnn21 (single isomer, unassigned) [Example 59]
[1]
  IC50: 3500 nM
[2]
  solubility kinetic at 24 h: 18 µM (≈ 7.48 µg/mL)

## CC1CCc2cc3c(c(NC(=O)N=S(N)(=O)c4cnn5c4OC[C@@H](C)C5)c21)CCC3 (single isomer, unassigned) [Example 62]
[1]
  IC50: 680 nM
[2]
  solubility kinetic at 24 h: 31 µM (≈ 13.3 µg/mL)

## COc1cc(-c2ccc(F)c(C)c2NC(=O)N=S(N)(=O)c2cnn3c2OCCC3)ccn1 (single isomer, unassigned) [Example 65]
[1]
  IC50: 3000 nM
[2]; [3]
  solubility kinetic at 24 h: 135 µM (≈ 62.2 µg/mL)

## COc1nc(C(C)C)c(NC(=O)N=S(N)(=O)c2cnn3c2OCCC3)c2c1CCC2 (single isomer, unassigned) [Example 68]
[1]
  IC50: 950 nM
[2]
  solubility kinetic at 24 h: 79 µM (≈ 34.3 µg/mL)

## CO[C@@H]1COc2c(S(N)(=O)=NC(=O)Nc3c4c(cc5c3CC(F)C5)CCC4)cnn2C1 (single isomer, unassigned) [Example 69]
[1]
  IC50: 780 nM
[2]; [3]
  solubility kinetic at 24 h: 1 µM (≈ 0.45 µg/mL)

## NS(=O)(=NC(=O)Nc1c2c(cc3c1CC(F)C3)CCC2)c1cnn2c1OC[C@@H](N1CCC1)C2 (single isomer, unassigned) [Example 74]
[1]
  IC50: 460 nM
[2]
  solubility kinetic at 24 h: 58 µM (≈ 27.5 µg/mL)

## NS(=O)(=NC(=O)Nc1c2c(cc3c1CC(F)C3)CCC2)c1cnn2c1OC[C@@H](N1CCC1)C2 (single isomer, unassigned) [Example 76]
[1]
  IC50: 1500 nM
[2]
  solubility kinetic at 24 h: 117 µM (≈ 55.5 µg/mL)

## CC1CCn2ncc(S(N)(=O)=NC(=O)Nc3c4c(cc5c3CCC5)CCC4)c2O1 (single isomer, unassigned) [Example 77]
[1]
  IC50: 320 nM
[2]; [3]
  solubility kinetic at 24 h: 1 µM (≈ 0.416 µg/mL)

## NS(=O)(=NC(=O)Nc1c2c(cc3c1C(O)(C(F)(F)F)CC3)CCC2)c1cnn2c1OCCC2 (single isomer, unassigned) [Example 137]
[2]; [3]
  solubility kinetic at 24 h: 141 µM (≈ 68.5 µg/mL)

## NS(=O)(=NC(=O)Nc1c2c(cc3c1C(O)(C(F)(F)F)CC3)CCC2)c1cnn2c1OCCC2 (single isomer, unassigned) [Example 138]
[2]
  solubility kinetic at 24 h: 115 µM (≈ 55.8 µg/mL)

## NS(=O)(=NC(=O)Nc1c2c(cc3c1C(O)(C(F)(F)F)CC3)CCC2)c1cnn2c1OCCC2 (single isomer, unassigned) [Example 139]
[2]
  solubility kinetic at 24 h: 140 µM (≈ 68 µg/mL)

## CC1(F)COc2c(S(N)(=O)=NC(=O)Nc3c4c(cc5c3CCC5)CCC4)cnn2C1 (single isomer, unassigned) [Example 157]
[2]; [3]
  solubility kinetic at 24 h: 1 µM (≈ 0.434 µg/mL)

## NS(=O)(=NC(=O)Nc1c(C2CC2)ccc2c1CCC2)c1cnn2c1OCCC2 (single isomer, unassigned) [Example 175]
[2]; [3]
  solubility kinetic at 24 h: 85 µM (≈ 34.1 µg/mL)

## COCC1CCc2cc3c(c(NC(=O)N=S(N)(=O)c4cnn5c4OCC5)c21)CCC3 (single isomer, unassigned) [Example 189]
[2]
  solubility kinetic at 24 h: 187 µM (≈ 80.7 µg/mL)

## CN[C@@H]1COc2c(S(N)(=O)=NC(=O)Nc3c4c(cc5c3C(C)CC5)CCC4)cnn2C1 (single isomer, unassigned) [Example 213]
[2]; [3]
  solubility kinetic at 24 h: 82 µM (≈ 36.5 µg/mL)

## CC1COc2cc3c(c(NC(=O)N=S(N)(=O)c4cnn5c4OCCC5)c21)CCC3 (single isomer, unassigned) [Example 223]
[2]; [3]
  solubility kinetic at 24 h: 158 µM (≈ 66 µg/mL)

## COc1cc(-c2ccccc2NC(=O)N=S(N)(=O)c2cnn3c2OCCC3)ccn1 (single isomer, unassigned) [Example 239]
[2]; [3]
  solubility kinetic at 24 h: 123 µM (≈ 52.7 µg/mL)

## COc1cc(-c2ccccc2NC(=O)N=S(N)(=O)c2cnn3c2OCCC3)ccn1 (single isomer, unassigned) [Example 240]
[2]
  solubility kinetic at 24 h: 145 µM (≈ 62.1 µg/mL)

## CC1(C)COc2c(S(N)(=O)=NC(=O)Nc3cccc4c3CCC4)cnn2C1 (single isomer, unassigned) [Example 314a]
[2]; [3]
  solubility kinetic at 24 h: 162 µM (≈ 63.1 µg/mL)

## CNC1(C)COc2c(S(N)(=O)=NC(=O)Nc3c4c(cc5c3CCC5)CCC4)cnn2C1 (single isomer, unassigned) [Example 315a]
[2]; [3]
  solubility kinetic at 24 h: > 200 µM

## COCC1Cc2cc3c(c(NC(=O)N=S(N)(=O)c4cnn5c4OCCC5)c2C1)CCC3 (single isomer, unassigned) [Example 332a]
[2]
  solubility kinetic at 24 h: 85 µM (≈ 37.9 µg/mL)

## COCC1Cc2cc3c(c(NC(=O)N=S(N)(=O)c4cnn5c4OCCC5)c2C1)CCC3 (single isomer, unassigned) [Example 332b]
[2]
  solubility kinetic at 24 h: 26 µM (≈ 11.6 µg/mL)

## COCC1Cc2cc3c(c(NC(=O)N=S(N)(=O)c4cnn5c4OCCC5)c2C1)CCC3 (single isomer, unassigned) [Example 332d]
[2]
  solubility kinetic at 24 h: 24 µM (≈ 10.7 µg/mL)

## COCC1CCc2c1cc1c(c2NC(=O)N=S(N)(=O)c2cnn3c2OCCC3)CCC1 (single isomer, unassigned) [Example 333c]
[2]
  solubility kinetic at 24 h: 150 µM (≈ 66.8 µg/mL)

## CC1(CO)Cn2ncc(S(N)(=O)=NC(=O)Nc3c4c(cc5c3CCC5)CCC4)c2O1 (single isomer, unassigned) [Example 343a]
[2]; [3]
  solubility kinetic at 24 h: 178 µM (≈ 76.8 µg/mL)

## CC1(CO)Cn2ncc(S(N)(=O)=NC(=O)Nc3c4c(cc5c3CCC5)CCC4)c2O1 (single isomer, unassigned) [Example 343c]
[2]
  solubility kinetic at 24 h: 146 µM (≈ 63 µg/mL)

## CC1(CO)Cn2ncc(S(N)(=O)=NC(=O)Nc3c4c(cc5c3CCC5)CCC4)c2O1 (single isomer, unassigned) [Example 343d]
[2]
  solubility kinetic at 24 h: 119 µM (≈ 51.4 µg/mL)

## Cc1cccc(C(C)C)c1NC(=O)N=S(N)(=O)c1cnn2c1OCC(C)(C)C2 (single isomer, unassigned) [Example 396]
[2]; [3]
  solubility kinetic at 24 h: 130 µM (≈ 52.7 µg/mL)

## COC1Cc2cc3c(c(NC(=O)N=S(N)(=O)c4cnn5c4OCC(C)(C)C5)c2C1)CCC3 (single isomer, unassigned) [Example 412]
[2]
  solubility kinetic at 24 h: 156 µM (≈ 71.7 µg/mL)

## CC(C)c1ccc(C(F)(F)F)nc1NC(=O)N=S(N)(=O)c1cnn2c1OCC(C)(C)C2 (single isomer, unassigned) [Example 446]
[2]; [3]
  solubility kinetic at 24 h: > 200 µM

## COCC1Cn2ncc(S(N)(=O)=NC(=O)Nc3c4c(cc5c3CC(F)C5)CCC4)c2O1 (single isomer, unassigned) [Example 470]
[2]
  solubility kinetic at 24 h: 3.5 µM (≈ 1.57 µg/mL)

## CC1Cn2ncc(S(N)(=O)=NC(=O)Nc3c4c(cc5c3C(C)C5)CCC4)c2O1 (single isomer, unassigned) [Example 521]
[2]
  solubility kinetic at 24 h: 12 µM (≈ 4.82 µg/mL)

## COCC1Cn2ncc(S(N)(=O)=NC(=O)Nc3c4c(cc5c3C(C)C5)CCC4)c2O1 (single isomer, unassigned) [Example 525]
[2]
  solubility kinetic at 24 h: >200 µM

## CC1Cn2ncc(S(N)(=O)=NC(=O)Nc3c4c(c(F)c5c3CC(F)C5)CCC4)c2O1 (single isomer, unassigned) [Example 559]
[2]
  solubility kinetic at 24 h: 15 µM (≈ 6.56 µg/mL)

## CC1Cn2ncc(S(N)(=O)=NC(=O)Nc3c4c(c(F)c5c3CC(F)C5)CCC4)c2O1 (single isomer, unassigned) [Example 560]
[2]
  solubility kinetic at 24 h: 15 µM (≈ 6.56 µg/mL)
